Test results reported in ChEMBL document CHEMBL1131982, “N-[2-(1-cyclohexenyl)ethyl]-N'-[2-(5-bromopyridyl)]-thiourea and N'-[2-(1-cyclohexenyl)ethyl]-N'-[2-(5-chloropyridyl)]-thiourea as potent inhibitors of multidrug-resistant human immunodeficiency virus-1” (Bioorg Med Chem Lett, 1999).
pIC50: −log10 of the molar value.

Legend:
[1] = biological target: Human immunodeficiency virus type 1 reverse transcriptase (Human immunodeficiency virus 1, UniProt Q72547); assay: Inhibitory activity against recombinant HIV-1 reverse transcriptase (rRT)
[2] = Anti-HIV activity by its ability to inhibit the replication of HIV-1 strain A17 (Y181C) in peripheral blood mononuclear cells (PBMC); type: functional; conditions: Homo sapiens
[3] = Anti-HIV activity by its ability to inhibit the replication of HIV-1 strain A17 variant (Y181C,K103N) in peripheral blood mononuclear cells (PBMC); type: functional, Homo sapiens
[4] = Anti-HIV activity by its ability to inhibit the replication of HIV-1 strain HTLV IIIB in peripheral blood mononuclear cells (PBMC); type: functional; conditions: Homo sapiens
[5] = Anti-HIV activity by its ability to inhibit the replication of HIV-1 strain RT-MDR(V106A) in peripheral blood mononuclear cells (PBMC); type: functional; conditions: Homo sapiens
[6] = Compound was evaluated for the cytotoxic activity by using Microculture Tetrazolium assay (MTA); type: functional

SMILES | pIC50 [1] | pIC50 [2] | pIC50 [3] | pIC50 [4] | pIC50 [5] | CC50 [6]
CC1(C)C2CC(C/N=C(\S)Nc3ccc(Br)cn3)CC1C2 (stereo not given) | < 4.00 |  |  |  |  | 
CC(C)Nc1cccnc1N1CCN(C(=O)c2cc3cc(NS(C)(=O)=O)ccc3[nH]2)CC1 [DELAVIRDINE] |  | 4.30 | < 4.00 | 8.05 | 6.40 | 3600 nM
S=C(NCCc1ccccn1)Nc1ccc(Br)cn1 [TROVIRDINE] |  | 6.30 | < 4.00 | 8.15 | 7.70 | > 100000 nM
CCOCn1c(Cc2ccccc2)c(C(C)C)c(=O)[nH]c1=O [EMIVIRINE] |  |  |  |  | 6.52 | > 100000 nM
Cc1cn([C@H]2C[C@H](N=[N+]=[N-])[C@@H](CO)O2)c(=O)[nH]c1=O [ZIDOVUDINE] |  | 8.22 | 8.40 |  | 6.70 | > 100000 nM
FC(F)(F)c1ccc(/N=C(\S)NCCC2=CCCCC2)nc1 | 5.40 | 6.52 | < 4.00 | 7.10 | 7.42 | > 100000 nM
S=C(NCCC1=CCCCC1)Nc1ccc(Cl)cn1 | 6.30 | 7.17 | 4.52 | 8.52 | 9.00 | > 100000 nM
S=C(NCC12CC3CC(CC(C3)C1)C2)Nc1ccc(Br)cn1 | < 4.00 |  |  |  |  | 
Cc1ccnc2c1NC(=O)c1cccnc1N2C1CC1 [NEVIRAPINE] |  | < 4.00 | < 4.00 | 7.47 | 5.30 | 10500 nM
S=C(NCCC1=CCCCC1)Nc1ccc(Br)cn1 | 6.40 |  | 4.73 | 8.52 | 9.00 | > 100000 nM
